Our source for the CC50 and EC50 values is ChEMBL document CHEMBL1156829 (Proc Natl Acad Sci U S A, 2008).

Series [1] can be described thus: NOVARTIS: Cytotoxicity against human hepatocellular carcinoma cell line (Huh7). Particulars: Huh7 cells (hepatocellular carcinoma cell line). In kind it is toxicity, cell-based, Huh-7.
Series [2] has as its system Plasmodium falciparum. Nature of the series: NOVARTIS: Inhibition of Plasmodium falciparum 3D7 (drug-susceptible) proliferation in erythrocyte-based infection assay. The conditions noted are these: Plasmodium falciparum, 3D7. In kind it is functional, organism-based.
The test system of series [3] is Plasmodium falciparum. Nature of the series: NOVARTIS: Inhibition of Plasmodium falciparum W2 (drug-resistant) proliferation in erythrocyte-based infection assay. Format: functional, organism-based. Particulars: Plasmodium falciparum, W2; read-out: EC50.

For the molecule `CCN(CC)CCCNc1nc2cc(OC)c(OC)cc2c2nc(-c3ccccc3)nn12`, in series [1], the half-maximal cytotoxic concentration (CC50) (commonly the concentration that lowers cell viability or growth by half) was > 100000 nM. In addition, the EC50 (usually the concentration at which the effect is half-maximal) in series [2] was 3250 nM; in series [3] it was 1170 nM.
For `COc1cc(C(c2c(C)n(C)n(-c3ccccc3)c2=O)c2c(C)n(C)n(-c3ccccc3)c2=O)cc(Cl)c1OCc1ccccc1`, the CC50 in series [1] came out at 38300 nM. The concentration giving a half-maximal response (EC50) in series [2] is 2700 nM; in series [3] it was 456 nM.
The like results for `CCOc1ccc(Nc2cc(C)nc3c(C)cc(C)cc23)cc1` were, in that order, 19200 nM, 484 nM and 225 nM.
For `CC1(C)N=C(N)N=C(N)N1c1ccccc1`, in that order: > 83700 nM, 174 nM and 988 nM.
The like results for `FC(F)(F)c1cnc(Sc2nnc(-c3ccncc3)o2)c(Cl)c1` were, in that order, 83900 nM, 1870 nM and 976 nM.
In the case of `Brc1ccc(C=NNc2nc3ccccc3[nH]2)cc1`, in series [1], the CC50 worked out at 55800 nM. Also, the half-maximal effective concentration (EC50) in series [2] came out at 226 nM; in series [3], 674 nM.
With `CC(C)CN1C(=O)c2ccccc2C(C(=O)Nc2ccc(C(C)C)cc2)C1c1cccs1` (stereo not given), the CC50 in series [1] was > 100000 nM. The results for the concentration for a half-maximal effect (EC50) in series [2] and in series [3] were 2410 nM and 1200 nM, respectively.
The like results for `CC[n+]1c(/C=C/c2ccc(C)cc2)ccc2ccccc21` were, in that order, > 10000 nM, 97.4 nM and 119 nM.
`CC(=O)N(C1=C(N(C)C)C(=O)c2ccccc2C1=O)c1ccc(F)cc1` had a CC50 in series [1] of 2680 nM. The results for the EC50 in series [2] and in series [3] were 24.4 nM and 32 nM, respectively.
For the molecule `COc1ccc(OC)c(CN2CCC3(CC2)CC3C(=O)NCCc2ccccc2OC)c1` (stereo not given), the CC50 in series [1] was > 100000 nM. The half-maximal effective concentration (EC50) in series [2] was > 3170 nM; in series [3], 1190 nM.
On to `c1ccc(CN2CCC(NCc3c[nH]c4ccccc34)CC2)cc1`, for which the half-maximal cytotoxic concentration (CC50) in series [1] is > 10000 nM. Moreover, the values for the EC50 in series [2] and in series [3] were 208 nM and 120 nM, respectively.
For `CC(C)C(=O)NC(Nc1cccc([N+](=O)[O-])c1)C(Cl)(Cl)Cl` (stereo not given), in that order: > 100000 nM, 1560 nM and 1200 nM.
The like results for `O=C(CN1CCCC1)N1N=C(c2cccs2)CC1c1ccc(F)cc1` (stereo not given) were, in that order, > 100000 nM, > 12500 nM and 1200 nM.
As for `C=CCn1cc(C=NNc2nc3ccccc3[nH]2)c2ccccc21`, the cytotoxic concentration (CC50) in series [1] turned out to be 18400 nM. For the same molecule, the EC50 in series [2] worked out at 91.3 nM; in series [3], 220 nM.
For `Cn1cnnc1SCC(=O)Nc1ccccc1C(F)(F)F`, in that order: > 100000 nM, > 12500 nM and 1190 nM.
Regarding `COc1cc(C=C(C#N)c2nc3ccccc3[nH]2)ccc1OCc1ccccc1Cl`, in series [1], the cytotoxic concentration (CC50) was > 100000 nM. Further, the half-maximal effective concentration (EC50) in series [2] worked out at 757 nM; in series [3], 1190 nM.
For `CCN1CCN(c2c(Cl)cccc2NC(=O)C(Cl)(Cl)Cl)CC1`, the CC50 in series [1] was > 100000 nM. For the same molecule, the values for the 50% effective concentration (EC50) in series [2] and in series [3] were 1670 nM and 1180 nM, respectively.
For `CC1CCN(CCCNc2ccc(C(=O)Nc3ccc(C(F)(F)F)cc3)cc2[N+](=O)[O-])CC1`, in that order: 23400 nM, 199 nM and 278 nM.
The like results for `Cc1cc(N2CCCC2)nc2ccc(NC(=S)NCCCN3CCN(Cc4ccccc4)CC3)cc12` were, in that order, 55500 nM, 116 nM and 658 nM.
As to `CC(C)C(=O)N(C)CCCNc1ccnc2cc(Cl)ccc12`, the CC50 in series [1] is > 10000 nM. Besides, the concentration for a half-maximal effect (EC50) is 131 nM in series [2] and 118 nM in series [3].
The like results for `O=C(Nc1cccc(N2CCC(NCC3CCCCC3)CC2)c1)C1CC1` were, in that order, > 100000 nM, 3680 nM and 1180 nM.
The like results for `COc1ccc2c(C)nc(Nc3nc(C)cc(-c4ccccc4)n3)nc2c1` were, in that order, > 100000 nM, 341 nM and 1160 nM.
With `CC(=NNC(=O)/C(=C/c1ccc([N+](=O)[O-])cc1)NC(=O)c1ccccc1)c1ccccn1`, in series [1], the CC50 was > 10000 nM. The values for the concentration giving a half-maximal response (EC50) in series [2] and in series [3] were 1050 nM and 117 nM, respectively.
`Cn1cc(C(c2cccs2)c2cn(C)c3ccccc23)c2ccccc21` gave a CC50 in series [1] of 52300 nM. Moreover, the EC50 in series [2] came out at 1370 nM; in series [3], 610 nM.
The like results for `CC(=O)N(C1=C(N2CCCCC2)C(=O)c2ccccc2C1=O)c1cccc(Cl)c1` were, in that order, 32000 nM, 239 nM and 375 nM.
On to `Cc1ccn2c(NC(C)(C)CC(C)(C)C)c(-c3ccccc3OC(=O)c3ccccc3Br)nc2c1`, for which the CC50 in series [1] is > 10000 nM. Also, the half-maximal effective concentration (EC50) in series [2] amounted to 760 nM; in series [3], 117 nM.
For `CCCCCCc1ccc(C(=O)Oc2ccccc2-c2nc3cc(C)ccn3c2NC(C)(C)CC(C)(C)C)cc1`, in that order: > 13800 nM, 813 nM and 162 nM.
For `Cc1ccc2nc(C)cc(NCCN(C)C)c2c1`, in that order: 59100 nM, 360 nM and 709 nM.
For `Cc1cc2c(Nc3cccc(Cl)c3C)ncnc2s1`, in that order: > 100000 nM, 1910 nM and 1190 nM.
`COc1cc(CN2CC3CC(C2)c2cccc(=O)n2C3)ccc1O` (stereo not given): the 50% cytotoxic concentration (CC50) in series [1] is > 100000 nM. The EC50 is > 12500 nM in series [2] and 1210 nM in series [3].
The like results for `C(=NNc1nc2ccccc2[nH]1)c1ccccc1` were, in that order, > 100000 nM, 587 nM and 1190 nM.
The like results for `COc1ccc(OC)c(-c2ccc(O)c(CNCC3CCCCC3)c2)c1` were, in that order, > 10000 nM, 350 nM and 120 nM.
The like results for `CCC(c1nc2ccccc2c(=O)n1-c1ccccc1OC)N(CCc1ccccc1)C(=O)c1cccc(C(F)(F)F)c1` (stereo not given) were, in that order, > 10000 nM, 919 nM and 118 nM.
Turning to `N#Cc1c2c(c(N3CCN(c4ccccn4)CC3)n3c1nc1ccccc13)CCC2`, the CC50 in series [1] was > 100000 nM. Moreover, the EC50 in series [2] came to 2360 nM; in series [3] it was 1180 nM.
On to `CCN(CC)S(=O)(=O)c1ccc(-c2csc(Nc3ccc(C)c(C)c3)n2)cc1`, for which the CC50 in series [1] was > 100000 nM. Also, the results for the EC50 in series [2] and in series [3] were > 2100 nM and > 1170 nM, respectively.
The like results for `CCC(Sc1nc2ccccc2n1C(C)=O)C(=O)NC1=NN=C(c2ccc(Br)cc2)CS1` (stereo not given) were, in that order, 46700 nM, 549 nM and 543 nM.
The like results for `c1ccc(-c2nc3cc4nc(-c5ccccc5)[nH]c4cc3[nH]2)cc1` were, in that order, > 100000 nM, 285 nM and 1200 nM.
The like results for `CN(CCCNc1ccnc2cc(Cl)ccc12)C(=O)c1ccc(C(C)(C)C)cc1` were, in that order, 3890 nM, 81.2 nM and 46.5 nM.
Take `CC(C)NC(=O)c1ccc2c(c1)N=C(c1ccccc1)N(C1CC1)C2`: in series [1], the 50% cytotoxic concentration (CC50) was > 10000 nM. Also, the EC50 in series [2] was > 1680 nM; in series [3], 117 nM.
`COc1ccc(OC)c(-c2ccc(O)c(CNCc3ccccc3OC)c2)c1`: the cytotoxic concentration (CC50) in series [1] was > 10000 nM. Moreover, the 50% effective concentration (EC50) was > 1520 nM in series [2] and 117 nM in series [3].
